Data on three compounds can be found in patent publication US5616609A, “Carcinostatic compound and production thereof” (priority 1991, dated 1997).

Series [1] deals with H-69 pulmonary cancer cells. The experiment in a line: Inhibition of proliferation of human pulmonary cancer cells H-69 (Tests 2 and 4). Type of series: cell-based. To be noted: pulmonary cancer H-69, RMP-1640 + 10% calf serum, 37° C. The procedure: (§1) Cells of gastric cancer, pulmonary cancer, liver cancer and leukemia, which had been separated from human patients, were separately placed in portions of RMP-1640 medium containing 10% calf serum and then incubated at 37° C. for 4 days in a 5% CO2 -incubator to obtain a cell population of 10^4 /ml. To the cells of each cancer kind so cultured, stelleramacrin was added at varied concentrations, and the concentration (IC50) of each test compound at which proliferation of the human cancer cells was inhibited by 50% was deterimined.
(§2) Cells of gastric cancer, pulmonary cancer, liver cancer and leukemia, which had been separated from human patients, were separately placed on portions of RMP-1640 medium containing 10% calf serum and then incubated at 37° C. for 4 days in a 5% CO2 -incubator to obtain a cell population of 10^4 /ml. To the cells of each cancer kind so cultured, gnidimacrin or pimelea factor was added at varied concentrations, and the concentration (IC50) of the test compound at which proliferation of the human cancer cells was inhibited by 50% was determined.

Series [2] has as its system K-III gastric cancer cells. Kind of series: Inhibition of proliferation of human gastric cancer cells K-III (Tests 2 and 4). Type of series: cell-based. The settings on record: RMP-1640 + 10% calf serum, 37° C. As to the method:
as §1, §2

The test system of another series is K-502 leukemia cells. The experiment in a line: Inhibition of proliferation of human leukemia cells K-502 (Tests 2 and 4). The settings on record: leukemia K-502, RMP-1640 + 10% calf serum, 37° C. In kind it is cell-based. As to the method:
as §1, §2

Series [3] deals with MKU-28 gastric cancer cells. Kind of series: Inhibition of proliferation of human gastric cancer cells MKU-28 (Tests 2 and 4). The settings on record: gastric cancer MKU-28, RMP-1640 + 10% calf serum, 37° C. Type of series: cell-based. As to the method:
as §1, §2

The next series in a line: Acute toxicity (LD50). To be noted: in vivo; species and route not given.
For series [4], the system named is mouse leukemia cell P-388. The experiment in a line: P-388 mouse leukemia, intraperitoneal transplant in BDF1 mice, survival (Test 1). The settings on record: 1 mg/kg, once a day for 5 days. Type of series: in vivo. The text has this:
The mouse leukemia cell P-388 was intraperitoneally transplanted to BDF1 mice in an amount of 1×10^6 cells per mouse. From the following day, each test drug was intraperitoneally administered to the mice once a day for 5 days. Each test group was compared in the number of survival days with a control group to determine an apothanasia rate.

Series [5] deals with PC-14 pulmonary cancer cells. The experiment in a line: Inhibition of proliferation of human pulmonary cancer cells PC-14 (Tests 2 and 4). Type of series: cell-based. The settings on record: pulmonary cancer PC-14, RMP-1640 + 10% calf serum, 37° C. The procedure: as §1, §2
The test system of series [6] is N-237 pulmonary cancer cells. Kind of series: Inhibition of proliferation of human pulmonary cancer cells N-237 (Tests 2 and 4). To be noted: pulmonary cancer N-237, RMP-1640 + 10% calf serum, 37° C. In kind it is cell-based. The procedure: as §1, §2
Series [7] deals with LU-99 pulmonary cancer cells. The experiment in a line: Inhibition of proliferation of human pulmonary cancer cells LU-99 (Tests 2 and 4). In kind it is cell-based. To be noted: pulmonary cancer LU-99, RMP-1640 + 10% calf serum, 37° C. As to the method:
as §1, §2

The subject of series [8] is MKV-45 gastric cancer cells. The experiment in a line: Inhibition of proliferation of human gastric cancer cells MKV-45 (Tests 2 and 4). Type of series: cell-based. The settings on record: gastric cancer MKV-45, RMP-1640 + 10% calf serum, 37° C. As to the method: as §1, §2
Another series deals with HLE liver cancer cells. Kind of series: Inhibition of proliferation of human liver cancer cells HLE (Tests 2 and 4). In kind it is cell-based. The settings on record: RMP-1640 + 10% calf serum, 37° C. As to the method: as §1, §2
The subject of series [9] is MKV-74 gastric cancer cells. Kind of series: Inhibition of proliferation of human gastric cancer cells MKV-74 (Tests 2 and 4). In kind it is cell-based. To be noted: gastric cancer MKV-74, RMP-1640 + 10% calf serum, 37° C. As to the method:
as §1, §2

Series [10] concerns PC-7 pulmonary cancer cells. The experiment in a line: Inhibition of proliferation of human pulmonary cancer cells PC-7 (Tests 2 and 4). In kind it is cell-based. To be noted: pulmonary cancer PC-7, RMP-1640 + 10% calf serum, 37° C. The procedure:
as §1, §2

A further series concerns B-16 melanoma. Kind of series: B-16 melanoma, hypodermic transplant in BDF1 mice (Test 3). In kind it is in vivo, mouse (BDF1). The settings on record: once a day for 5 days, vs control. As to the method: (§3) Hypodermically transplanted to induce solid cancer were Lewis pulmonary cancer cells to BDF1 mice in an amount of 1×10^6 cells per mouse, Clon 26 large bowel cancer cells to BALB/C mice in an amount of 5×10^5 cells per mouse and a 20% homogenate of B-16 melanoma solid cancer to BDF1 mice in an amount of 0.25 ml per mouse. From the following day of the transplantation, gnidimacrin and pimelea factor P2 were administered separately once a day for 5 days. Each test group was compared in apothanasia rate with a control group. The results on gnidimacrin and pimelea factor P2 are shown in Table 3 and Table 4, respectively.

Series [11] has as its system Lewis pulmonary cancer cells. The experiment in a line: Lewis pulmonary cancer, hypodermic transplant in BDF1 mice (Test 3). In kind it is in vivo, mouse (BDF1). The settings on record: once a day for 5 days, vs control. The procedure: as §3
Series [12] has as its system solid cancer such as gastric cancer, pulmonary cancer, liver cancer. Kind of series: Inhibiting action against solid cancer (summary statement). To be noted: liver cancer or the like.
For series [13], the system named is Colon 26 large bowel cancer. The experiment in a line: Colon 26 large bowel cancer, hypodermic transplant in BALB/C mice (Test 3). Type of series: in vivo, mouse (BALB/C). The settings on record: once a day for 5 days, vs control. As to the method: as §3
The subject of a further series is Meth A fibrosarcoma. Kind of series: Meth A fibrosarcoma solid cancer in male BALB/c mice, injection into the cancer (Test 5). In kind it is in vivo, mouse (BALB/c). The settings on record: 0.001 mg/Kg injected into solid cancer once a day for 5 days, 21st day. As to the method: Using laboratory animals, effects of gnidimacrin on solid cancer were studied. First, intradermally inoculated to male BALB/c mice (each group consisting of 6 mice, each having a weight of 17-21 g) was 0.01 ml of RPMI 1640 solution which contained 10% fetal serum and 1×10^5 cells/ml of Meth A fibrosarcoma. Seven days after the inoculation, solid cancer was formed. Into the solid cancer, gnidimacrin which had been dissolved in physiological saline containing 0.5% CMC, was administered at 0.001 mg/Kg by injection. That administration was conducted once a day for 5 days. On the 21st day from the inoculation of Meth A fibrosarcoma, the cancer was cut out and its weight was compared with that of a control group not administered with gnidimacrin. […] Namely, gnidimacrin inhibited the proliferation of the solid cancer by 81%.

Series [14] relates to Lewis pulmonary cancer cells. The experiment in a line: Lewis pulmonary cancer in mice, intravenous administration. Type of series: in vivo, mouse. The settings on record: 0.06 mg/Kg.

Like-named read-outs stand apart in the source and are kept apart here.

What is called IC50 is the point on the concentration scale where inhibition reaches its midpoint. As a reminder, the LD50 is the dose at which mortality reaches 50%. Higher therefore signals a less toxic substance. Turning to `C=C(C)C12CC(COC(=O)c3ccccc3)C34OC5(OC1C3C1OC1(CO)C(O)C1(O)C(O)C(C)C(C(C)CCCCCCC5O)C14)O2` (single isomer, unassigned) [Stelleramacrin A], the IC50 in [1] (Homo sapiens, read-out: IC50) came out at 10.2 µg/mL; in [2] (Homo sapiens, read-out: IC50), 0.1 µg/mL; in the series with K-502 leukemia cells (Homo sapiens, read-out: IC50), 10 µg/mL; in [3] (Homo sapiens, read-out: IC50) it was 0.2 µg/mL; in series [5] (Homo sapiens, read-out: IC50), 8.4 µg/mL; in series [6] (Homo sapiens, read-out: IC50), 5.3 µg/mL. In addition, the IC50 in [7] (Homo sapiens, read-out: IC50) is above 10 µg/mL; in series [8] (Homo sapiens, read-out: IC50), 0.8 µg/mL; with HLE liver cancer cells (Homo sapiens, read-out: IC50) it was above 10 µg/mL; in series [9] (Homo sapiens, read-out: IC50) it was above 10 µg/mL; in series [10] (Homo sapiens, read-out: IC50), 5.1 µg/mL. Also, the LD50 in “Acute toxicity (LD50)” came to 5 mg/kg. Moreover, in series [4] (control group 8.08 days), the “Average number of survival days” value is reported as 13.83 days. For the same compound, in series [4] (survival days vs control), the Apothanasia rate turned out to be 71%.

With `C=C(C)[C@]12C[C@@H](C)[C@@]34OC5(CCCCCCC[C@H](C)[C@H]6[C@H](C)[C@H](OC(=O)c7ccccc7)[C@@](O)([C@H](O)[C@@]7(CO)O[C@H]7[C@H]3[C@H]1O5)[C@@H]64)O2` [Pimelea factor P2, pimelea factor P2], the results for the Apothanasia rate (with B-16 melanoma (0.1 mg/kg); in series [11] (0.1 mg/kg); in series [13] (0.05 mg/kg)) were 41.8%, 35.2% and 18.5%, respectively. Moreover, the IC50 was 7 µg/mL in series [1]; 0.003 µg/mL in series [2]; 0.3 µg/mL with K-502 leukemia cells; 0.01 µg/mL in series [3]; 3.2 µg/mL in [5]; 3.8 µg/mL in series [6]. Further, the IC50 in series [7] was 10 µg/mL; in [8] it was 0.005 µg/mL; in the series on HLE liver cancer cells, 10 µg/mL; in [9] it was 10 µg/mL; in series [10], 1.7 µg/mL. For the same compound, in [12], the “inhibiting action against solid cancer” value is “strong inhibiting action”.

In the case of `C=C(C)[C@@]12C[C@@H](COC(=O)c3ccccc3)[C@@]34OC5(O[C@@H]1[C@@H]3[C@@H]1O[C@]1(CO)[C@@H](O)[C@@]1(O)[C@H]4[C@H]([C@H](C)[C@@H]1OC(=O)c1ccccc1)[C@H](C)CCCCCC[C@H]5O)O2` (single isomer, unassigned) [Gnidimacrin, gnidimacrin], the Apothanasia rate in the series on B-16 melanoma (0.02 mg/kg) was found to be 49.2%; in series [11] (0.02 mg/kg) it was 40.0%; in [13] (0.01 mg/kg), 26.8%; in series [14], 47.8%. Besides, the half-inhibitory concentration (IC50) came to 0.6 µg/mL in series [1] (Homo sapiens, read-out: IC50); 0.0006 µg/mL in series [2] (Homo sapiens, read-out: IC50); 0.0025 µg/mL in the series on K-502 leukemia cells (Homo sapiens, read-out: IC50); 0.006 µg/mL in series [3] (Homo sapiens, read-out: IC50); 0.85 µg/mL in [5] (Homo sapiens, read-out: IC50); 0.2 µg/mL in series [6] (Homo sapiens, read-out: IC50). The IC50 in series [7] (Homo sapiens, read-out: IC50) was 1 µg/mL; in series [8] (Homo sapiens, read-out: IC50) it was 0.0001 µg/mL; in the series on HLE liver cancer cells (Homo sapiens, read-out: IC50), 2 µg/mL; in series [9] (Homo sapiens, read-out: IC50), above 1 µg/mL; in series [10] (Homo sapiens, read-out: IC50), 0.5 µg/mL. For the same compound, the average cancer weight in the series with Meth A fibrosarcoma (control group 2.1 g) is listed as 0.4 g. For the same compound, the “inhibition of the proliferation of the solid cancer” value in the series on Meth A fibrosarcoma (vs control) is recorded as 81%. In [12], the “inhibiting action against solid cancer” value is “strong inhibiting action”.
